Counter-ions that a name gives are not always drawn. Each block holds one compound with its values, some of them ahead of it.
Columns and labels:
[1] = biological target: T1, bovine adrenal estrogen sulfotransferase (EC 2.8.2.4) (Bos taurus, UniProt P19217); assay: Relative sulfurylation rate (RSR): enzymic transfer of sulfate from analogs IV and V to estrone at saturating steroid; details: for RSR (in words): sulfurylation of estrone relative to IVa (RSR=1); for reduction in RSR relative to IVa: 200 μM, may be a result of inhibition by coproducts; for calculated level of coproduct produced: nucleotide at 200 μM
T1 sequence (P19217 1-295): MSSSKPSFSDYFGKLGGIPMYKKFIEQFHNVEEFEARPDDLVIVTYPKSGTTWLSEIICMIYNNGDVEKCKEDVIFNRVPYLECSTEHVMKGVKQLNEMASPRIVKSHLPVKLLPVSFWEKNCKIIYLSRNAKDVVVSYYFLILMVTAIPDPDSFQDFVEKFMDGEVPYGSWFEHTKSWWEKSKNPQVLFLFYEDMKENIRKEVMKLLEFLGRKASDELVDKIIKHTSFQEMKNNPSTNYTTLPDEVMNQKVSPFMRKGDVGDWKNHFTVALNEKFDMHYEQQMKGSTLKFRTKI

[2] = biological target: T1, bovine adrenal estrogen sulfotransferase (EC 2.8.2.4); design: Ki data from Horwitz et al 1977; details: cited from earlier work; for enzyme affinity / effect of coproduct (in words) / Ki of coproduct: estrogen sulfotransferase; for enzyme affinity / effect of coproduct (in words): discussion of Ki values; for Ki of coproduct: unit not given
[3] = biological target: T1, bovine adrenal estrogen sulfotransferase (EC 2.8.2.4); assay: Sulfate transfer to [6,7-3H2]estrone by Compounds IVa and Va (biological activity); format: biochemical
Procedure: The biological activity of IV (like PAPS) may be measured by sulfate transfer to [6,7-^3 H2 ]estrone as mediated by bovine adrenal estrone sulfotransferase (3'-phosphoadenylylsulfate:estrone 3-sulfotransferase, EC 2.8.2.4) and is identical with that obtained with a sample of IV prepared by an established biochemical procedure.
Biological activity of IVa and Va was determined by sulfate transfer to [6,7-^3 H2 ]estrone in the presence of bovine adrenal estrogen sulfotransferase (E.C. 2.8.2.4).
Bovine spleen phosphodiesterase II (E.C. 3.1.4.18) and ribonuclease T2 were purchased from Sigma Chemical Company. Bovine adrenal estrogen sulfotransferase (E.C. 2.8.2.4.) was isolated and purified as described by Adams et al, Biochim. Biophys. Acta, 370:160-188 (1974). [^35 S]PAPS and [6,7-^3 H2 ]-estrone were purchased from New England Nuclear Corp.
Sulfation of estrone with synthetic Compound IVa (PAPS) was determined using the procedure described in the article by Rozhin et al, ante. Sulfation by Compound Va was as follows. The ability of Compound Va to donate its sulfate to estrone was determined with [6,7-^3 H2 ]estrone (1.3·10^6 dpm/4 nmol) by modification of the above-mentioned Rozhin et al method in which Compound Va (0.11 mM) […] for Compound IVa.
After termination of the incubation, excess free [^3 H]estrone was extracted three times with 0.3 ml of ethyl ether and the aqueous sample adjusted to 0.5 ml with redistilled methanol. An aliquot (25 μl) was applied, together with 15 μg of methanolic estrone sulfate marker, to type SG chromatography media (Gelman Instrument Co., Ann Arbor, Michigan) and developed with chloroform/acetone/acetic acid (110:35:6). Estrone sulfate was visualized by spraying with methylene blue and the spot punched out with a cork borer and counted in 10 ml of Bray's dioxane scintillation solution. […] The amount of steroid sulfate ester produced was calculated utilizing the specific activity of [^3 H]estrone.

Storage stability = format: physicochemical; details: 50% ethanol at -20° C.
Procedure: Fractions containing Compound IVa were pooled and the buffer was removed in the usual manner. The product was redissolved in approx. 3 ml of H2 O and the solution was adjusted to pH 7 with dilute NH4 OH. Treatment of a small aliquot of the latter with an equal volume of 0.2 M HCl at 37° C. for 1.75 h gave adenosine 3',5'-diphosphate as the sole detectable product in Systems S1 and S2. Compound IVa was homogeneous in S1, S2, E1 and E2. […] Compound IVa gave yields of 68-72% based on Compound IIa.

[4] = biological target: T1, bovine adrenal estrogen sulfotransferase (EC 2.8.2.4); assay: Inhibition / affinity of desulfurylated nucleotides (coproducts) on estrogen sulfotransferase; format: biochemical; design: Ki data from Horwitz et al 1977; details: product of the reaction
Text: ^b Data taken from Tables II and III of Horwitz et al, Biochim.

SMILES: Nc1ncnc2c1ccn2[C@@H]1O[C@H](COP(=O)(O)OS(=O)(=O)O)[C@@H](O)[C@H]1OP(=O)(O)O [2'P(7-deaza-Ado)5'PS, tubercidin 2'-phosphate 5'-phosphosulfate]
RSR (in words) [1]: relatively low

SMILES: Nc1ncnc2c1ccn2[C@@H]1O[C@H](COP(=O)(O)O)[C@@H](O)[C@H]1OP(=O)(O)O [2'P(7-deaza-Ado)5'P]
enzyme affinity / effect of coproduct (in words) [2]: has an effect on the estrogen sulfotransferase reaction
Ki of coproduct [2]: compares favorably with that of 3'PAdo5'P

SMILES: Nc1ncnc2c1ncn2[C@@H]1O[C@H](COP(=O)(O)O)[C@@H](O)[C@H]1OP(=O)(O)O [2'PAdo5'P, adenosine 2',5'-diphosphate]
Ki of desulfurylated nucleotide (coproduct) ([2]; data taken from Horwitz et al, Biochim. Biophys. Acta, 480:376-381 (1977)): .infin.
enzyme affinity / effect of coproduct (in words) [2]: weak and devoid of activity
Ki of coproduct [2]: .infin.

activity relative to the natural isomer ([3]; Iso-PAPS, sulfate transfer to [6,7-3H2]estrone): approximately one-third
activity relative to the natural isomer (IVa) ([3]; sulfate transfer to estrone): approximately one-third
RSR at 200 μM (expected) ([1]; expected value at 200 μM concentration): ~0.29
saturation concentration ([1]; stated in Table III footnote c): 100 µM
SMILES: Nc1ncnc2c1ncn2[C@@H]1O[C@H](COP(=O)(O)OS(=O)(=O)O)[C@@H](O)[C@H]1OP(=O)(O)O [2'PAdo5'PS, adenosine 2'-phosphate 5'-phosphosulfate]

SMILES: Nc1ncnc2c1nc(Br)n2[C@@H]1O[C@H](COP(=O)(O)OS(=O)(=O)O)[C@@H](OP(=O)(O)O)[C@H]1O [3'P8-BrAdo5'PS, 8-bromoadenosine 3'-phosphate 5'-phosphosulfate]
reduction in RSR relative to IVa [1]: 14-15%
calculated level of coproduct produced [1]: 4 µM
RSR (in words) [1]: compare favorably with active sulfate itself
RSR (in words) ([1]; listed as IVb): the largest

SMILES: Nc1ncnc2c1ccn2[C@@H]1O[C@H](COP(=O)(O)O)[C@@H](OP(=O)(O)O)[C@H]1O [3'P(7-deaza-Ado)5'P, tubercidin (4-amino-7-(β-D-ribofuranosyl)-7H-pyrrolo-[2,3-d]-pyrimidine) 3',5'-diphosphate]
enzyme affinity / effect of coproduct (in words) [2]: enhanced affinity

reduction in RSR relative to IVa [1]: 14-15%
calculated level of coproduct produced [1]: 4 µM
RSR (in words) ([1]; listed as IVe): the largest
SMILES: Nc1ncnc2c1ccn2[C@@H]1O[C@H](COP(=O)(O)OS(=O)(=O)O)[C@@H](OP(=O)(O)O)[C@H]1O [3'P(7-deaza-Ado)5'PS, tubercidin 3'-phosphate 5'-phosphosulfate]
RSR (in words) ([1]; listed as 3'PTu5'PS): compare favorably with active sulfate itself

saturation curves for IV from two sources ([3]; IV 15-100 μM, [6,7-3H2]estrone 100 μM): essentially superimposable
activity compared with PAPS from enzymatic/biochemical procedure ([3]; sulfate transfer to [6,7-3H2]estrone, listed as IV): virtually identical
storage stability (Storage stability): kept indefinitely
SMILES: Nc1ncnc2c1ncn2[C@@H]1O[C@H](COP(=O)(O)OS(=O)(=O)O)[C@@H](OP(=O)(O)O)[C@H]1O [3'PAdo5'PS, adenosine 3'-phosphate 5'-phosphosulfate]

SMILES: Nc1ncnc2c([C@@H]3O[C@H](COP(=O)(O)O)[C@@H](OP(=O)(O)O)[C@H]3O)n[nH]c12 [3'PFo5'P, formycin (7-amino-3-(β-D ribofuranosyl)pyrazolo-[4,3-d]-pyrimidine) 3',5'-diphosphate]
enzyme affinity / effect of coproduct (in words) [2]: intermediate affinity

SMILES: Nc1ncnc2c([C@@H]3O[C@H](COP(=O)(O)OS(=O)(=O)O)[C@@H](OP(=O)(O)O)[C@H]3O)n[nH]c12 [3'PFo5'PS, formycin 3'-phosphate 5'-phosphosulfate]
RSR (in words) [1]: modest capacity to sulfurylate estrone

SMILES: O=P(O)(O)OC[C@H]1O[C@@H](n2cnc3c(O)ncnc32)[C@H](O)[C@@H]1OP(=O)(O)O [3'PIno5'P, inosine 3',5'-diphosphate]
enzyme affinity / effect of coproduct (in words) [2]: substantial loss of enzyme affinity

SMILES: O=c1[nH]cnc2c1ncn2[C@@H]1O[C@H](COP(=O)(O)OS(=O)(=O)O)[C@@H](OP(=O)(O)O)[C@H]1O [3'PIno5'PS, inosine 3'-phosphate 5'-phosphosulfate]
RSR (in words) [1]: low
RSR (in words) ([1]; listed as IVd): only minimal

SMILES: O=P(O)(O)OC[C@H]1O[C@@H](n2cnc3cncnc32)[C@H](O)[C@@H]1OP(=O)(O)O [3'PPuo5'P, nebularine (9-β-D-ribofuranosylpurine) 3',5'-diphosphate]
enzyme affinity / effect of coproduct (in words) [2]: substantial loss of enzyme affinity

SMILES: O=P(O)(O)O[C@H]1[C@@H](O)[C@H](n2cnc3cncnc32)O[C@@H]1COP(=O)(O)OS(=O)(=O)O [3'PPuo5'PS, nebularine 3'-phosphate 5'-phosphosulfate]
RSR (in words) [1]: low
RSR (in words) ([1]; listed as IVc): only minimal

effect on the estrogen sulfotransferase reaction [4]: little or no effect
SMILES: C[C@]12CC[C@@H]3c4ccc(OS(=O)(=O)O)cc4CC[C@H]3[C@@H]1CCC2=O [Estrone sulfate]

From US4266048A, “Synthesis of analogs of 3'-phosphoadenosine 5'-phosphosulfate (PAPS)” (The United States of America as represented by the …, priority 1978, dated 1981)
